# Source: patent US11419852B2, “Beta-lactam compounds or salts thereof for use in long-acting prevention or treatment of a glucose metabolism disorder” (GLYCOLYSIS BIOMED CO., LTD., priority 2019, dated 2022)
# Marks after values point to notes of the source that are not given here.
# Key:
# Format in all cases: in vivo
# [1] = Body weight of mice recorded weekly
# Description: (§1) Four to five weeks old db/db mice (BKS.Cg-Dock7^m+/+Lepr^db/JNarl) and m/m mice (BKS.Cg-Dock7^m+/Dock7^m+) were obtained from National Laboratory Animal Center ([…], Taiwan). […] PMI Nutrition International, Brentwood, Mo.) and water ad libitum. […] The mouse body weight (bw) and the amounts of water and food intake were recorded weekly for the entire study period.
# [2] = test system: db/db mice; test: Histopathological assessment (H&E stain)
# Excerpt: For histopathological assessment, all mice were sacrificed by 95% CO2 asphyxiation at the end of the study period. Their brain, liver, kidney, pancreas, and epididymal fat pads were removed, fixed in 10% phosphate-buffered formalin, and embedded in paraffin. Tissues embedded in paraffin were cut into […] sections that were then stained with hematoxylin-eosin (i.e., H&E stain).
# [3] = Food and water intake of mice
# Description: as §1
# [4] = Ex 1: db/db mice, ertapenem i.p. 0.41 mg/g bw/day, 3 weeks
# [5] = Ex 3: db/db mice, daily dosing 3 weeks at doses of Table 10
smiles,measurement,setting,value
"C[C@@H](O)[C@H]1C(=O)N2C(C(=O)O)=C(S[C@@H]3CN[C@H](C(=O)Nc4cccc(C(=O)O)c4)C3)[C@H](C)[C@H]12 [DMH, ertapenem]",Body weight,"[1]; Ex 2 G5 db/db, DMH i.p. 0.2 mg/g bw/day, dosing 6 weeks, week 2",31.81 ± 1.12^bc
same,Body weight,"[1]; Ex 2 G5 db/db, DMH i.p. 0.2 mg/g bw/day, dosing 6 weeks, week 3",34.36 ± 0.75^bc
same,Body weight,"[1]; Ex 2 G5 db/db, DMH i.p. 0.2 mg/g bw/day, dosing 6 weeks, week 4",35.55 ± 0.61^bc
same,Body weight,"[1]; Ex 2 G5 db/db, DMH i.p. 0.2 mg/g bw/day, dosing 6 weeks, week 5",37.76 ± 0.49^bc
same,Body weight,"[1]; Ex 2 G5 db/db, DMH i.p. 0.2 mg/g bw/day, dosing 6 weeks, week 6",39.06 ± 0.54^bc
same,Body weight,"[1]; Ex 2 G5 db/db, DMH i.p. 0.2 mg/g bw/day, dosing 6 weeks, week 7",39.07 ± 0.45^bc
same,Body weight,"[1]; Ex 2 G5 db/db, DMH i.p. 0.2 mg/g bw/day, dosing 6 weeks, week 8",39.99 ± 0.39^bc
same,Body weight,"[1]; Ex 2 G5 db/db, DMH i.p. 0.2 mg/g bw/day, dosing 6 weeks, week 9",40.63 ± 0.27^bcd
same,Body weight,"[1]; Ex 2 G5 db/db, DMH i.p. 0.2 mg/g bw/day, dosing 6 weeks, week 10",41.39 ± 0.29^b
same,Body weight,"[1]; Ex 2 G5 db/db, DMH i.p. 0.2 mg/g bw/day, dosing 6 weeks, week 11",42.98 ± 0.35^b
same,Body weight,"[1]; Ex 2 G5 db/db, DMH i.p. 0.2 mg/g bw/day, dosing 6 weeks, week 12",44.66 ± 0.38^b
same,Body weight,"[1]; Ex 2 G5 db/db, DMH i.p. 0.2 mg/g bw/day, dosing 6 weeks, week 13",46.52 ± 0.45^b
same,Body weight,"[1]; Ex 2 G5 db/db, DMH i.p. 0.2 mg/g bw/day, dosing 6 weeks, week 14",46.10 ± 0.51^b
same,Body weight,"[1]; Ex 2 G5 db/db, DMH i.p. 0.2 mg/g bw/day, dosing 6 weeks, week 15",48.58 ± 0.55^b
same,Body weight,"[1]; Ex 2 G5 db/db, DMH i.p. 0.2 mg/g bw/day, dosing 6 weeks, week 16",49.65 ± 0.63^b
same,Body weight,"[1]; Ex 2 G5 db/db, DMH i.p. 0.2 mg/g bw/day, dosing 6 weeks, week 17",49.96 ± 0.68^b
same,Body weight,"[1]; Ex 2 G5 db/db, DMH i.p. 0.2 mg/g bw/day, dosing 6 weeks, week 18",50.71 ± 0.87^b
same,Body weight,"[1]; Ex 2 G5 db/db, DMH i.p. 0.2 mg/g bw/day, dosing 6 weeks, week 19",52.73 ± 1.04^b
same,Body weight,"[1]; Ex 2 G6 db/db, DMH i.p. 0.4 mg/g bw/day, dosing 6 weeks, Baseline",31.61 ± 1.03^b
same,Body weight,"[1]; Ex 2 G6 db/db, DMH i.p. 0.4 mg/g bw/day, dosing 6 weeks, week 1",31.23 ± 0.98^b
same,Body weight,"[1]; Ex 2 G6 db/db, DMH i.p. 0.4 mg/g bw/day, dosing 6 weeks, week 2",31.62 ± 0.77^bc
same,Body weight,"[1]; Ex 2 G6 db/db, DMH i.p. 0.4 mg/g bw/day, dosing 6 weeks, week 3",33.98 ± 0.54^b
same,Body weight,"[1]; Ex 2 G6 db/db, DMH i.p. 0.4 mg/g bw/day, dosing 6 weeks, week 4",34.29 ± 0.59^b
same,Body weight,"[1]; Ex 2 G6 db/db, DMH i.p. 0.4 mg/g bw/day, dosing 6 weeks, week 5",36.44 ± 0.71^b
same,Body weight,"[1]; Ex 2 G6 db/db, DMH i.p. 0.4 mg/g bw/day, dosing 6 weeks, week 6",37.16 ± 0.8^b
same,Body weight,"[1]; Ex 2 G6 db/db, DMH i.p. 0.4 mg/g bw/day, dosing 6 weeks, week 7",37.16 ± 0.93^b
same,Body weight,"[1]; Ex 2 G6 db/db, DMH i.p. 0.4 mg/g bw/day, dosing 6 weeks, week 8",38.67 ± 1.24^b
same,Body weight,"[1]; Ex 2 G6 db/db, DMH i.p. 0.4 mg/g bw/day, dosing 6 weeks, week 9",39.72 ± 1.36^bc
same,Body weight,"[1]; Ex 2 G6 db/db, DMH i.p. 0.4 mg/g bw/day, dosing 6 weeks, week 10",40.81 ± 1.34^b
same,Body weight,"[1]; Ex 2 G6 db/db, DMH i.p. 0.4 mg/g bw/day, dosing 6 weeks, week 11",42.61 ± 1.31^b
same,Body weight,"[1]; Ex 2 G6 db/db, DMH i.p. 0.4 mg/g bw/day, dosing 6 weeks, week 12",44.54 ± 1.63^b
same,Body weight,"[1]; Ex 2 G6 db/db, DMH i.p. 0.4 mg/g bw/day, dosing 6 weeks, week 13",45.69 ± 1.86^b
same,Body weight,"[1]; Ex 2 G6 db/db, DMH i.p. 0.4 mg/g bw/day, dosing 6 weeks, week 14",45.08 ± 1.89^b
same,Body weight,"[1]; Ex 2 G6 db/db, DMH i.p. 0.4 mg/g bw/day, dosing 6 weeks, week 15",47.29 ± 1.95^b
same,Body weight,"[1]; Ex 2 G6 db/db, DMH i.p. 0.4 mg/g bw/day, dosing 6 weeks, week 16",48.79 ± 1.95^b
same,Body weight,"[1]; Ex 2 G6 db/db, DMH i.p. 0.4 mg/g bw/day, dosing 6 weeks, week 17",48.99 ± 1.87^b
same,Body weight,"[1]; Ex 2 G6 db/db, DMH i.p. 0.4 mg/g bw/day, dosing 6 weeks, week 18",50.70 ± 1.87^b
same,Body weight,"[1]; Ex 2 G6 db/db, DMH i.p. 0.4 mg/g bw/day, dosing 6 weeks, week 19",53.56 ± 1.99^b
same,Body weight,"[1]; Ex 3: db/db mice, daily dosing 3 weeks at doses of Table 10, Baseline",29.3 ± 1^b
same,Body weight,"[1]; Ex 3: db/db mice, daily dosing 3 weeks at doses of Table 10, Final",38.3 ± 1^c
same,Body weight,"[1]; Ex 3: db/db mice, daily dosing 3 weeks at doses of Table 10, Week 3",33.5 ± 1^cd
same,Body weight,"[1]; Ex 3: db/db mice, daily dosing 3 weeks at doses of Table 10, Week 6 (stopped for 3 weeks)",35.1 ± 1^b
same,Body weight,"[1]; Ex 3: db/db mice, daily dosing 3 weeks at doses of Table 10, Week 9 (stopped for 6 weeks)",40.0 ± 1^c
same,"Injuries in brain, liver, kidney, pancreas, and epididymal fat pads","[2]; Ex 1, after 3 weeks 0.41 mg/g bw/day i.p.",no significant injuries
same,Severity and incidence of liver glycogen storage vs DB group,"[2]; Ex 1, hepatocyte cytoplasm around central venous region",slighter
same,"Injuries in liver, kidney, pancreas, and epididymal fat pads",[2]; Ex 2,No significant injuries
same,Food and water intake vs DB group,"[3]; Ex 1: db/db mice, 0.41 mg/g bw/day i.p., entire study period, P<0.05",reduced
same,Diet intake,[3]; [4],5.0 ± 0.9 g/mice/day
same,Water intake,[3]; [4],6.8 ± 1.6 mL/mice/day
same,Food intake in db/db mice,"[3]; Ex 3, P<0.05",significantly reduced
same,Water intake in db/db mice,"[3]; Ex 3, P<0.05",significantly reduced
same,Diet intake,[3]; [5],5.2 ± 1^b g/mice/day
same,Water intake,[3]; [5],8.4 ± 1^c mL/mice/day
